Target: MMP-13CD (catalytic domain of collagenase-3) (Homo sapiens, UniProt P45452)
Assay: Thiopeptolide substrate hydrolysis inhibition assay, MMP-13CD
Type: biochemical
Conditions: Table I; thiopeptolide substrate, HEPES pH 7.0, 22° C.; read-out: MMP-13CD IC50
Source text: Thiopeptolide substrates show virtually no decomposition or hydrolysis at or below neutral pH in the absence of a matrix metalloproteinase enzyme.

Row | Compound | IC50 [nM]
1 | COc1ccc(CNC(=O)c2cc3c(=O)n(CC4CCCCC4)c(=O)n(C)c3s2)cc1 [Example 70, 3-cylcohexylmethyl-1-methyl-2,4-dioxo-1,2,3,4-tetrahydro-thieno[2,3-d]pyrimidine-6-carboxylic acid-4methoxy-benzylamide] | 119
2 | O=C(OCc1ccoc1)c1cc2c(=O)n(Cc3ccccc3)c(=O)[nH]c2s1 [Example 71, 3-Benzyl-2,4-dioxo-1,2,3,4-tetrahydro-thieno[2,3-d]pyrimidine-6-carboxylic acid furan-3-ylmethyl ester] | 13000
3 | Cn1c(=O)n(Cc2ccccc2)c(=O)c2cc(C(=O)OCc3c(F)c(F)c(F)c(F)c3F)sc21 [Example 72, 3-Benzyl-1-methyl-2,4-dioxo-1,2,3,4-tetrahydro-thieno[2,3-d]pyrimidine-6-carboxylic acid pentafluorophenylmethyl ester] | > 100000
4 | O=C(OCc1ccccc1)c1cc2c(=O)n(Cc3ccccc3)c(=O)n(CC3CC3)c2s1 [Example 74, 3-Benzyl-1-cyclopropylmethyl-2,4-dioxo-1,2,3,4-tetrahydro-thieno[2,3-d]pyrimidine-6-carboxylic acid benzyl ester] | 71500
5 | Cn1c(=O)n(Cc2ccccc2)c(=O)c2cc(C(=O)NCc3ccncc3)sc21 [Example 75, 3-Benzyl-1-methyl-2,4-dioxo-1,2,3,4-tetrahydro-thieno[2,3-d]pyrimidine-6-carboxylic acid (pyridin-4-ylmethyl)-amide] | 345
6 | Cn1c(=O)n(Cc2ccc(C(=O)O)cc2)c(=O)c2cc(C(=O)NCc3cccc(OC(F)F)c3)sc21 [Example 77, 4-[6-(3-Difluoromethoxy-benzylcarbamoyl)-1-methyl-2,4-dioxo-1,4-dihydro-2H-thieno[2,3-d]pyrimidin-3-ylmethyl]-benzoic acid] | 6.55
7 | Cn1c(=O)n(Cc2ccc(C(=O)OC(C)(C)C)cc2)c(=O)c2cc(C(=O)NCc3cccc(OC(F)F)c3)sc21 [Example 78, 4-[6-(3-Difluoromethoxy-benzylcarbamoyl)-1-methyl-2,4-dioxo-1,4-dihydro-2H-thieno[2,3-d]pyrimidin-3-ylmethyl]-benzoic acid tert-butyl ester] | 900
8 | COc1cccc(CNC(=O)c2cc3c(=O)n(Cc4ccc(C(=O)O)cc4)c(=O)n(C)c3s2)c1 [Example 79, 4-[6-(3-Methoxy-benzylcarbamoyl)-1-methyl-2,4-dioxo-1,4-dihydro-2H-thieno[2,3-d]pyrimidin-3-ylmethyl]-benzoic acid] | 2.05
9 | Cn1c(=O)n(Cc2ccc(C(=O)OC(C)(C)C)cc2)c(=O)c2cc(C(=O)NCc3ccc(S(C)(=O)=O)cc3)sc21 [Example 80, 4-[6-(4-Methanesulfonyl-benzylcarbamoyl)-1-methyl-2,4-dioxo-1,4-dihydro-2H-thieno[2,3-d]pyrimidin-3-ylmethyl]-benzoic acid tert-butyl ester] | 25000
10 | Cn1c(=O)n(Cc2ccc(C(=O)O)cc2)c(=O)c2cc(C(=O)NCc3ccc(S(C)(=O)=O)cc3)sc21 [Example 81, 4-[6-(4-Methanesulfonyl-benzylcarbamoyl)-1-methyl-2,4-dioxo-1,4-dihydro-2H-thieno[2,3-d]pyrimidin-3-ylmethyl]-benzoic acid] | 3900
11 | Cn1c(=O)n(Cc2ccc(C(=O)O)cc2)c(=O)c2cc(C(=O)NCCc3ccncc3)sc21 [Example 82, 4-[1-Methyl-2,4-dioxo-6-(2-pyridin-4-yl-ethylcarbamoyl)-1,4-dihydro-2H-thieno[2,3-d]pyrimidin-3-ylmethyl]-benzoic acid] | 3700
12 | COc1cccc(CNC(=O)c2cc3c(=O)n(Cc4ccc(OC(F)(F)F)cc4)c(=O)n(C)c3s2)c1 [Example 83, 1-Methyl-2,4-dioxo-3-(4-trifluoromethoxy-benzyl)-1,2,3,4-tetrahydro-thieno[2,3-d]pyrimidine-6-carboxylic acid 3-methoxy-benzylamide] | 140
13 | COC(=O)c1ccc(Cn2c(=O)c3cc(C(=O)NCc4cccc(OC)c4)sc3n(C)c2=O)cc1 [Example 84, 4-[6-(3-Methoxy-benzylcarbamoyl)-1-methyl-2,4-dioxo-1,4-dihydro-2H-thieno[2,3-d]pyrimidin-3-ylmethyl]-benzoic acid methyl ester] | 20.5
14 | COc1cccc(CNC(=O)c2cc3c(=O)n(Cc4ccc5c(c4)OCC5)c(=O)n(C)c3s2)c1 [Example 85, 3-(2,3-Dihydro-benzofuran-6-ylmethyl)-1-methyl-2,4-dioxo-1,2,3,4-tetrahydro-thieno[2,3-d]pyrimidine-6-carboxylic acid 3-methoxy-benzylamide] | 47.5
15 | COc1cccc(CNC(=O)c2cc3c(=O)n(Cc4cnc(C)s4)c(=O)n(C)c3s2)c1 [Example 86, 1-Methyl-3-(2-methyl-thiazol-5-ylmethyl)-2,4-dioxo-1,2,3,4-tetrahydro-thieno[2,3-d]pyrimidine-6-carboxylic acid 3-methoxy-benzylamide] | 1400
16 | Cn1c(=O)n(Cc2ccc(-c3nnn[nH]3)cc2)c(=O)c2cc(C(=O)NCc3ccc(F)cc3)sc21 [Example 87, 1-Methyl-2,4-dioxo-3-[4-(1H-tetrazol-5-yl)-benzyl]-1,2,3,4-tetrahydro-thieno[2,3-d]pyrimidine-6-carboxylic acid 4-fluoro-benzylamide] | 18.5
17 | COc1nc2sc(C(=O)OCc3ccccc3)cc2c(=O)n1Cc1ccccc1 [Example 88, 3-Benzyl-2-methoxy-4-oxo-3,4-dihydro-thieno[2,3-d]pyrimidine-6-carboxylic acid benzyl ester] | 3150
18 | COc1cccc(CNC(=O)c2cc3c(=O)n(Cc4ccc(C(=O)OCOC(=O)C(C)(C)C)cc4)c(=O)n(C)c3s2)c1 [Example 89, 4-[6-(3-Methoxy-benzylcarbamoyl)-1-methyl-2,4-dioxo-1,4-dihydro-2H-thieno[2,3-d]pyrimidin-3-ylmethyl]-benzoic acid 2,2-dimethyl-propionyloxymethyl ester] | 113
19 | COc1cccc(CNC(=O)c2cc3c(=O)n(CC4CCC(C(=O)O)CC4)c(=O)n(C)c3s2)c1 (stereo not drawn) [Example 90, 4-[6-(3-Methoxy-benzylcarbamoyl)-1-methyl-2,4-dioxo-1,4-dihydro-2H-thieno[2,3-d]pyrimidin-3-ylmethyl]-cyclohexanecarboxylic acid] | 5.43

Now from value to compound:

Row | IC50 [nM] | Compound
20 | 49.6 | COC(=O)C1CCC(Cn2c(=O)c3cc(C(=O)NCc4cccc(OC)c4)sc3n(C)c2=O)CC1 (stereo not drawn) [Example 91, 4-[6-(3-Methoxy-benzylcarbamoyl)-1-methyl-2,4-dioxo-1,4-dihydro-2H-thieno[2,3-d]pyrimidin-3-ylmethyl]-cyclohexanecarboxylic acid methyl ester]
21 | 10.9 | COC(=O)C1(c2ccc(Cn3c(=O)c4cc(C(=O)NCc5cccc(OC)c5)sc4n(C)c3=O)cc2)CC1 [Example 92, 1-{4-[6-(3-Methoxy-benzylcarbamoyl)-1-methyl-2,4-dioxo-1,4-dihydro-2H-thieno[2,3-d]pyrimidin-3-ylmethyl]-phenyl}-cyclopropanecarboxylic acid methyl ester]
22 | 111 | COc1cccc(CNC(=O)c2cc3c(=O)n(Cc4ccc(C5(C(=O)OC(C)(C)C)CC5)cc4)c(=O)n(C)c3s2)c1 [Example 93, 1-{4-[6-(3-Methoxy-benzylcarbamoyl)-1-methyl-2,4-dioxo-1,4-dihydro-2H-thieno[2,3-d]pyrimidin-3-ylmethyl]-phenyl}-cyclopropanecarboxylic acid tert-butyl ester]
23 | 5.35 | COc1cccc(CNC(=O)c2cc3c(=O)n(Cc4ccc(C5(C(=O)O)CC5)cc4)c(=O)n(C)c3s2)c1 [Example 94, 1-{4-[6-(3-Methoxy-benzylcarbamoyl)-1-methyl-2,4-dioxo-1,4-dihydro-2H-thieno[2,3-d]pyrimidin-3-ylmethyl]-phenyl}-cyclopropanecarboxylic acid]
24 | 103 | COc1cccc(CNC(=O)c2cc3c(=O)n(Cc4ccc(OC(C)(C)C(=O)OC(C)(C)C)cc4)c(=O)n(C)c3s2)c1 [Example 95, 2-{4-[6-(3-Methoxy-benzylcarbamoyl)-1-methyl-2,4-dioxo-1,4-dihydro-2H-thieno[2,3-d]pyrimidin-3-ylmethyl]-phenoxy}-2-methyl-propionic acid tert-butyl ester]
25 | 18.5 | COc1cccc(CNC(=O)c2cc3c(=O)n(Cc4ccc(OC(C)(C)C(=O)O)cc4)c(=O)n(C)c3s2)c1 [Example 96, 2-{4-[6-(3-Methoxy-benzylcarbamoyl)-1-methyl-2,4-dioxo-1,4-dihydro-2H-thieno[2,3-d]pyrimidin-3-ylmethyl]-phenoxy}-2-methyl-propionic acid]
26 | > 100000 | Cn1c(=O)n(Cc2ccccc2)c(=O)c2cc(C(=O)OCc3ccccc3)oc21 [Example 97, 3-Benzyl-1-methyl-2,4-dioxo-1,2,3,4-tetrahydro-furo[2,3-d]pyrimidine-6-carboxylic acid benzyl ester]
27 | 63 | COc1cccc(Cn2c(=O)c3cc(C(=O)OCc4ccccc4)sc3n(C)c2=O)c1 [Example 98, 3-(3-Methoxy-benzyl)-1-methyl-2,4-dioxo-1,2,3,4-tetrahydro-thieno[2,3-d]pyrimidine-6-carboxylic acid benzyl ester]
28 | 610 | Cn1c(=O)n(Cc2ccc(-c3ccccc3)cc2)c(=O)c2cc(C(=O)OCc3ccccc3)sc21 [Example 100, 3-Biphenyl-4-ylmethyl-1-methyl-2,4-dioxo-1,2,3,4-tetrahydro-thieno[2,3-d]pyrimidine-6-carboxylic acid benzyl ester]
29 | 34 | Cn1c(=O)n(Cc2ccc(S(C)(=O)=O)cc2)c(=O)c2cc(C(=O)OCc3ccccc3)sc21 [Example 101, 3-(4-Methanesulfonyl-benzyl)-1-methyl-2,4-dioxo-1,2,3,4-tetrahydro-thieno[2,3-d]pyrimidine-6-carboxylic acid benzyl ester]
30 | 34 | Cn1c(=O)n(Cc2ccc(S(C)(=O)=O)cc2)c(=O)c2cc(C(=O)OCc3ccccc3)sc21 [Example 102, 3-(4-Methanesulfonyl-benzyl)-1-methyl-2,4-dioxo-1,2,3,4-tetrahydro-thieno[2,3-d]pyrimidine-6-carboxylic acid benzyl ester]

From patent publication US20030004172A1, “Fused pyrimidinone matrix metalloproteinase inhibitors” (priority 2001, published 2003)
